From patent US20150065416A1, “NOVEL DRUG COMBINATION” (FAB PHARMA SAS, priority 2013, published 2015)
Values after ≈ are worked out from the molar mass of the structure shown. Read-outs that look alike come from different tables or passages of the source.

Experiments:
[1] = system: A. baumannii isolates; experiment: Individual antimicrobial susceptibility testing (MIC, broth microdilution, CLSI); assay type: cell-based, Acinetobacter baumannii; details: for MIC50 / MIC90: Acinetobacter baumannii
Experimental: In the antimicrobial susceptibility testing 77 isolates of A. baumannii (from 2010) in the following sub-groups were tested: • 22 isolates generally susceptible to antimicrobial agents (“Sus”) • 20 carbapenem-resistant isolates (e.g. “MPM-R”) • 20 aminoglycoside-resistant isolates (e.g. “AMK-R”) • 15 colistin-resistant isolates. (e.g. “COL-R”)
Minimum inhibitory concentration (MIC) endpoints were determined by broth microdilution according to CLSI guidelines (CLSI, M7-A8 & M100-S22, 2012). Panels were prepared at IHMA using cation-adjusted Mueller-Hinton broth. Colonies were taken directly from a second-pass culture plate and prepared to a suspension equivalent of the 0.5 McFarland standard using normal saline.
Testing was carried out as described in the General Procedures to determine minimum inhibitory concentration (MIC) end points for compound (I), amikacin, colistin, gentamicin, meropenem and tobramycin, for 77 A. baumannii isolates. Under the “MIC (μg/ml)” heading, the first column (Range) indicates the MIC end points for the particular number (N) of isolates tested, the second column (50%) provides an estimate of the concentration that inhibits 50% (MIC50) of bacterial isolates tested, and the third column (90%) provides an estimate of the concentration that inhibits 90% of the bacterial isolates tested.

[2] = system: A. baumannii isolates; experiment: Checkerboard testing (compound (I)/antibacterial agent interaction, FIC index); assay type: cell-based, Acinetobacter baumannii
Experimental: Checkerboard interaction studies were performed using 5 isolates from each of the sub-groups and time kill studies were performed using 3 isolates from each sub-group.
Checkerboards (20 isolates, 5 per sub-group) were prepared so as to contain multiple concentrations of compound (I) with different additional antibacterial agents (amikacin, gentamicin, colistin, meropenem and tobramycin) as follows:
Serial two-fold dilutions of the antimicrobial agents alone or in combination in wells of 96 well microtiter plates were inoculated with the appropriate inoculum so that each well contained approximately 4-5×10^4 CFU/ml. Plates were incubated at 35° C. for 16-20 hours. Combination concentrations were tested between 0.25×MIC and 2×MIC. Growth and sterility controls were also included in each plate.
Synergy, indifference and antagonism were calculated based upon the use of the fractional inhibitory concentration (FIC) indices as described by Pillai, Moellering & Eliopoulos (2005) whereby:
Synergism=FIC index of ≦0.5 Indifference=FIC index >1 but ≦4 Additivity >0.5 to 1 Antagonism=FIC index of >4
Checkerboard studies were carried out as described in General Procedures using twenty different A. baumannii isolates with 5 per sub-group of: susceptible, amikacin-resistant, colistin-resistant and meropenem-resistant.

[3] = Amikacin-resistant isolates, N=20
[4] = Colistin-resistant isolates, N=15
[5] = Meropenem-resistant isolates, N=20

Work on NC[C@H]1O[C@H](O[C@H]2[C@H](O)[C@@H](O[C@H]3O[C@H](CO)[C@@H](O)[C@H](N)[C@H]3O)[C@H](N)C[C@@H]2N)[C@H](N)C[C@@H]1O [tobramycin] yielded an MIC50 ([1]; All isolates, N=77) of 2 µg/mL (≈ 4.28 µM), an MIC90 ([1]; All isolates, N=77) of over 32 µg/mL and an MIC50 [1, 3] of over 32 µg/mL. For the same compound, the MIC90 [1, 3] was over 32 µg/mL, the MIC50 [1, 4] was 32 µg/mL (≈ 68.4 µM) and the MIC90 [1, 4] was over 32 µg/mL. The MIC50 [1, 5] was 4 µg/mL (≈ 8.56 µM), the MIC90 [1, 5] was over 32 µg/mL and the MIC50 ([1]; Susceptible isolates, N=22) was 1 µg/mL (≈ 2.14 µM). For the same compound, the MIC90 ([1]; Susceptible isolates, N=22) was 2 µg/mL (≈ 4.28 µM), the “MIC Range” value ([1]; Susceptible isolates, N=22) was 0.12 to 2 µg/mL and the MIC ([2]; Acinetobacter baumannii, A. baumannii 441142, colistin-resistant, read-out: MIC) was over 1020 µg/mL. It also gave an MIC ([2]; Acinetobacter baumannii, A. baumannii 441160, colistin-resistant, read-out: MIC) of over 1020 µg/mL, an MIC ([2]; Acinetobacter baumannii, A. baumannii 463996, colistin-resistant, read-out: MIC) of 2 µg/mL and an MIC ([2]; Acinetobacter baumannii, A. baumannii 466936, colistin-resistant, read-out: MIC) of 64 µg/mL. The MIC ([2]; Acinetobacter baumannii, A. baumannii 517303, colistin-resistant, read-out: MIC) was 256 µg/mL, the MIC ([2]; Acinetobacter baumannii, A. baumannii 618649, meropenem-resistant, read-out: MIC) was 1 µg/mL and the MIC ([2]; Acinetobacter baumannii, A. baumannii 625917, meropenem-resistant, read-out: MIC) was 1 µg/mL. It also gave an MIC ([2]; Acinetobacter baumannii, A. baumannii 628760, susceptible, read-out: MIC) of 2 µg/mL, an MIC ([2]; Acinetobacter baumannii, A. baumannii 637723, amikacin-resistant, read-out: MIC) of 2 µg/mL and an MIC ([2]; Acinetobacter baumannii, A. baumannii 638115, amikacin-resistant, read-out: MIC) of 2 µg/mL. It also gave an MIC ([2]; Acinetobacter baumannii, A. baumannii 650216, meropenem-resistant, read-out: MIC) of 1 µg/mL, an MIC ([2]; Acinetobacter baumannii, A. baumannii 655932, amikacin-resistant, read-out: MIC) of 2 µg/mL and an MIC ([2]; Acinetobacter baumannii, A. baumannii 661954, amikacin-resistant, read-out: MIC) of 1 µg/mL. It also gave an MIC ([2]; Acinetobacter baumannii, A. baumannii 667848, meropenem-resistant, read-out: MIC) of 1 µg/mL, an MIC ([2]; Acinetobacter baumannii, A. baumannii 668116, susceptible, read-out: MIC) of 1 µg/mL and an MIC ([2]; Acinetobacter baumannii, A. baumannii 668239, amikacin-resistant, read-out: MIC) of 4 µg/mL. The MIC ([2]; Acinetobacter baumannii, A. baumannii 670348, susceptible, read-out: MIC) was 2 µg/mL, the MIC ([2]; Acinetobacter baumannii, A. baumannii 671050, meropenem-resistant, read-out: MIC) was 4 µg/mL and the MIC ([2]; Acinetobacter baumannii, A. baumannii 672190, susceptible, read-out: MIC) was 1 µg/mL. The MIC ([2]; Acinetobacter baumannii, A. baumannii 674340, susceptible, read-out: MIC) was 1 µg/mL.

gentamicin was tested, and the “MIC 50%” value ([1]; All isolates, N=77) was 32 µg/mL, the “MIC 90%” value ([1]; All isolates, N=77) was over 32 µg/mL and the “MIC 50%” value [1, 3] was over 32 µg/mL. For the same compound, the “MIC 90%” value [1, 3] was over 32 µg/mL, the “MIC 50%” value [1, 4] was 32 µg/mL and the “MIC 90%” value [1, 4] was over 32 µg/mL. For the same compound, the “MIC 50%” value [1, 5] was over 32 µg/mL, the “MIC 90%” value [1, 5] was over 32 µg/mL and the “MIC 50%” value ([1]; Susceptible isolates, N=22) was 1 µg/mL. For the same compound, the “MIC 90%” value ([1]; Susceptible isolates, N=22) was 2 µg/mL, the “MIC Range” value ([1]; Susceptible isolates, N=22) was 0.06 to 2 µg/mL and the MIC ([2]; A. baumannii 441142, colistin-resistant) was over 1024 µg/mL. The MIC ([2]; A. baumannii 441160, colistin-resistant) was over 1024 µg/mL, the MIC ([2]; A. baumannii 463996, colistin-resistant) was 2 µg/mL and the MIC ([2]; A. baumannii 466936, colistin-resistant) was 4 µg/mL. For the same compound, the MIC ([2]; A. baumannii 517303, colistin-resistant) was 512 µg/mL, the MIC ([2]; A. baumannii 618649, meropenem-resistant) was 0.5 µg/mL and the MIC ([2]; A. baumannii 625917, meropenem-resistant) was 1 µg/mL. The MIC ([2]; A. baumannii 628760, susceptible) was 1 µg/mL, the MIC ([2]; A. baumannii 637723, amikacin-resistant) was 128 µg/mL and the MIC ([2]; A. baumannii 638115, amikacin-resistant) was 4 µg/mL. For the same compound, the MIC ([2]; A. baumannii 650216, meropenem-resistant) was 64 µg/mL, the MIC ([2]; A. baumannii 655932, amikacin-resistant) was 128 µg/mL and the MIC ([2]; A. baumannii 661954, amikacin-resistant) was 16 µg/mL. The MIC ([2]; A. baumannii 667848, meropenem-resistant) was 256 µg/mL, the MIC ([2]; A. baumannii 668116, susceptible) was 0.5 µg/mL and the MIC ([2]; A. baumannii 668239, amikacin-resistant) was 1024 µg/mL. The MIC ([2]; A. baumannii 670348, susceptible) was 1 µg/mL, the MIC ([2]; A. baumannii 671050, meropenem-resistant) was 8 µg/mL and the MIC ([2]; A. baumannii 672190, susceptible) was 1 µg/mL. The MIC ([2]; A. baumannii 674340, susceptible) was 1 µg/mL.
